{"source": "patent US20030199492A1", "about": "“Combination therapy” (priority 1997, published 2003)", "origin": "cited, not measured here", "key": {"[1]": {"test_system": "smooth muscle cell migration"}}, "data": [{"smiles": "CCOC(=O)C1=C(COCCN)NC(C)=C(C(=O)OC)C1c1ccccc1Cl", "note": "(single isomer, unassigned) [R(+) isomer, amlodipine]", "values": [{"measurement": "calcium channel blocking activity", "setting": "calcium channel", "value": "little or no calcium channel blocking activity"}, {"measurement": "inhibition of smooth muscle cell migration", "setting": "[1]", "value": "potent inhibitor of smooth muscle cell migration"}]}]}
